{"source": "paper PMC9743094", "about": "“Synthesis and Evaluation of Polymyxins Bearing Reductively Labile Disulfide-Linked Lipids” (Journal of Medicinal Chemistry, 2022)", "key": {"[1]": {"test_system": "differentiated conditionally immortalized PTECs (ciPTECs, OAT-1)", "experiment": "ciPTEC toxicity assay (PrestoBlue)", "assay_type": "cell-based, human", "procedure,_shortened": "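ciPTEC (OAT-1) cells were differentiated 24 h at 33 °C then 6 days at 37 °C before 24 h exposure at 37 °C to serially diluted compounds in serum-free medium. Viability by 10% PrestoBlue fluorescence (530/590 nm), relative to untreated cells. TC50 from nonlinear regression with bottom fixed at 0; triplicates.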"}, "[2]": {"test_system": "A. baumannii (ATCC 19606)", "assay_type": "cell-based", "details": "ATCC 19606", "procedure,_shortened": "(§1)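 Broth microdilution per CLSI in cation-adjusted Mueller–Hinton Broth (12.5 μg/mL Mg^2+, 20 μg/mL Ca^2+), inoculum 10^6 CFU/mL final, 37 °C. MIC taken as lowest concentration with no visible growth, consistent across at least duplicate experiments.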"}, "[3]": {"test_system": "E. coli (ATCC 25922)", "assay_type": "cell-based", "details": "ATCC 25922", "procedure,_shortened": "as §1"}, "[4]": {"test_system": "P. aeruginosa (ATCC 27853)", "assay_type": "cell-based", "details": "ATCC 27853", "procedure,_shortened": "as §1"}, "[5]": {"test_system": "K. pneumoniae (ATCC 13883)", "assay_type": "cell-based", "details": "ATCC 13883", "procedure,_shortened": "as §1"}, "[6]": {"test_system": "E. coli 1793", "assay_type": "cell-based", "details": "1793", "experimental": "(§2) Minimum inhibitory concentrations (MICs) on relevant Gram-negative bacteria were determined by broth microdilution, in accordance with CLSI guidelines. Indicated bacteria were taken from glycerol stocks and incubated overnight on blood agar at 37 °C. Well-isolated colonies were taken, suspended in TSB (5 mL), and grown to an OD600 of 0.5. Compounds to be tested were dissolved in DMSO (6.4 mg/mL), diluted in cation-adjusted Mueller–Hinton Broth (CAMHB) (12.5 and 20 μg/mL Mg^2+ and Ca^2+, respectively), and diluted serially on polypropylene microtiter plates. To the diluted compounds (50 μL per well) was added 50 μL of relevant bacterial suspension, to yield a final concentration of 10^6 CFU/mL. Plates were covered by adhesive gas-permeable membranes and incubated at 37 °C. MIC was read out as the lowest concentration that inhibited visual bacterial growth. Shown values are consistent results from at least duplicate experiments.\n(§3) Bacterial strains used for MIC assays and extended MIC assessment\n(§4) Strains: The following strains were obtained from BEI Resources, NIAID, NIH: E. Coli M0072, strain\n(§5) Table S2. […] Values are given in μg/mL.\n(§6) Species Strain ID Resistance Polymyxin B 18b 23a 24a"}, "[7]": {"test_system": "A. baumannii BAA-747", "assay_type": "cell-based", "details": "BAA-747", "experimental": "as §2, §3, §4, §5, §6"}, "[8]": {"test_system": "K. pneumoniae KP1.53", "assay_type": "cell-based", "details": "KP1.53", "experimental": "as §2, §3, §4, §5, §6"}, "[9]": {"test_system": "K. pneumoniae ATCC 29665", "assay_type": "cell-based", "details": "ATCC 29665", "experimental": "as §2, §3, §4, §5, §6"}, "[10]": {"test_system": "A. baumannii NRZ-00687", "assay_type": "cell-based", "details": "NRZ-00687", "experimental": "as §2, §3, §4, §5, §6"}, "[11]": {"test_system": "E. coli M0072", "assay_type": "cell-based", "details": "M0072", "experimental": "as §2, §3, §4, §5, §6"}, "[12]": {"test_system": "E. coli JS136", "assay_type": "cell-based", "details": "JS136", "experimental": "as §2, §3, §4, §5, §6"}, "[13]": {"test_system": "P. aeruginosa 2018-007", "assay_type": "cell-based", "details": "2018-007", "experimental": "as §2, §3, §4, §5, §6"}, "[14]": {"test_system": "P. aeruginosa M120", "assay_type": "cell-based", "details": "M120", "experimental": "as §2, §3, §4, §5, §6"}, "[15]": {"test_system": "A. baumannii RUH-134", "assay_type": "cell-based", "details": "RUH-134", "experimental": "as §2, §3, §4, §5, §6"}, "[16]": {"test_system": "K. pneumoniae RC0045", "assay_type": "cell-based", "details": "RC0045", "experimental": "as §2, §3, §4, §5, §6"}, "[17]": {"test_system": "P. aeruginosa ATCC 10145", "assay_type": "cell-based", "details": "ATCC 10145", "experimental": "as §2, §3, §4, §5, §6"}, "[18]": {"test_system": "P. aeruginosa 2251", "assay_type": "cell-based", "details": "2251", "experimental": "as §2, §3, §4, §5, §6"}, "[19]": {"test_system": "A. baumanii (ATCC 17961)", "assay_type": "cell-based", "details": "ATCC 17961, 2 h", "experimental": "as §2\n(§7) Table S3. MIC values [µg/mL] and relative toxicity values for disulfide containing polymyxin derivative 18b and\n(§8) non-disulfide containing analogue 45. […]"}, "[20]": {"test_system": "P. aeruginosa (PAO1)", "assay_type": "cell-based", "details": "PAO1, 2 h", "experimental": "as §2, §7, §8"}}, "note": "Where two headings read alike, the source gives them in different places. Starred links: 1 amine or outer side, 2 acyl side, 3 side chain; linkers in the order of their positions; H or OH if unused. Positions of bridges follow the written chain, without caps; N, C: chain ends. Non-standard residues stand in square brackets, D forms with d. Residues, ends and D or L forms follow the SMILES beside them. *: point of attachment. X2 = CC(C)CCCCC[C@@H](N[*:1])C(=O)[*:2]; S(2-cyclohexylethyl) = C1CCC(CCS*)CC1; Dab = NCC[C@H](N)C(=O)O; X1 = CC(C)CCCCS*"}
{"smiles": "CC(C)CCCCSSC[C@H](NC(=O)CN)C(=O)N[C@H](C(=O)N[C@@H](CCN)C(=O)N[C@H]1CCNC(=O)[C@H]([C@@H](C)O)NC(=O)[C@H](CCN)NC(=O)[C@H](CCN)NC(=O)[C@H](CC(C)C)NC(=O)[C@@H](Cc2ccccc2)NC(=O)[C@H](CCN)NC1=O)[C@@H](C)O", "note": "[Compound 24a] (H-GC(X1)T[Dab][Dab][Dab][dF]L[Dab][Dab]T; lactam 5-C)", "values": [{"measurement": "TC50, Day 2", "setting": "[1]", "value": 327, "unit": "µM"}, {"measurement": "ciPTEC Toxicity Index (relative to polymyxin B)", "setting": "[1]", "value": 8.0}, {"measurement": "MIC A. baumannii (ATCC 19606)", "setting": "[2]", "value": 1, "unit": "µg/mL"}, {"measurement": "MIC E. coli (ATCC 25922)", "setting": "[3]", "value": 2, "unit": "µg/mL"}, {"measurement": "MIC P. aeruginosa (ATCC 27853)", "setting": "[4]", "value": 2, "unit": "µg/mL"}, {"measurement": "MIC K. pneumoniae (ATCC 13883)", "setting": "[5]", "value": 1, "unit": "µg/mL"}, {"measurement": "MIC E. coli 1793", "setting": "[6]", "value": 1, "unit": "µg/mL"}, {"measurement": "MIC A. baumannii BAA-747", "setting": "[7]", "value": 1, "unit": "µg/mL"}, {"measurement": "MIC K. pneumoniae KP1.53", "setting": "[8]", "value": 2, "unit": "µg/mL"}, {"measurement": "MIC K. pneumoniae ATCC 29665", "setting": "[9]", "value": 1, "unit": "µg/mL"}, {"measurement": "MIC A. baumannii NRZ-00687", "setting": "[10]", "value": 1, "unit": "µg/mL"}, {"measurement": "MIC E. coli M0072", "setting": "[11]", "value": 1, "unit": "µg/mL"}, {"measurement": "MIC E. coli JS136", "setting": "[12]", "value": 1, "unit": "µg/mL"}, {"measurement": "MIC P. aeruginosa 2018-007", "setting": "[13]", "value": 16, "unit": "µg/mL"}, {"measurement": "MIC P. aeruginosa M120", "setting": "[14]", "value": 2, "unit": "µg/mL"}, {"measurement": "MIC A. baumannii RUH-134", "setting": "[15]", "value": 1, "unit": "µg/mL"}, {"measurement": "MIC K. pneumoniae RC0045", "setting": "[16]", "value": 1, "unit": "µg/mL"}, {"measurement": "MIC P. aeruginosa ATCC 10145", "setting": "[17]", "value": 4, "unit": "µg/mL"}, {"measurement": "MIC P. aeruginosa 2251", "setting": "[18]", "value": 2, "unit": "µg/mL"}]}
{"smiles": "CC(C)CCCCC[C@@H](N)C(=O)N[C@H](C(=O)N[C@@H](CCN)C(=O)N[C@H]1CCNC(=O)[C@H]([C@@H](C)O)NC(=O)[C@H](CCN)NC(=O)[C@H](CCN)NC(=O)[C@H](CC(C)C)NC(=O)[C@@H](Cc2ccccc2)NC(=O)[C@H](CCN)NC1=O)[C@@H](C)O", "note": "[Compound 45] (H-[X2]T[Dab][Dab][Dab][dF]L[Dab][Dab]T; lactam 4-C)", "values": [{"measurement": "ciPTEC Toxicity Index (relative to polymyxin B)", "setting": "[1]", "value": 2.0}, {"measurement": "TC50, Day 2", "setting": "[1]; 24 h", "value": 82, "unit": "µM"}, {"measurement": "MIC A. baumannii (ATCC 19606)", "setting": "[2]", "value": 0.25, "unit": "µg/mL"}, {"measurement": "MIC P. aeruginosa (ATCC 27853)", "setting": "[4]", "value": 1, "unit": "µg/mL"}, {"measurement": "MIC K. pneumoniae (ATCC 13883)", "setting": "[5]", "value": "≤ 0.25", "unit": "µg/mL"}, {"measurement": "MIC A. baumannii NRZ-00687", "setting": "[10]", "value": 0.5, "unit": "µg/mL"}, {"measurement": "MIC A. baumanii (ATCC 17961)", "setting": "[19]", "value": 0.25, "unit": "µg/mL"}, {"measurement": "MIC P. aeruginosa (PAO1)", "setting": "[20]", "value": 1, "unit": "µg/mL"}]}
{"smiles": "CC(C)C[C@@H]1NC(=O)[C@@H](Cc2ccccc2)NC(=O)[C@H](CCN)NC(=O)[C@@H](NC(=O)[C@H](CCN)NC(=O)[C@@H](NC(=O)[C@H](CSSCCC2CCCCC2)NC(=O)CN)[C@@H](C)O)CCNC(=O)[C@H]([C@@H](C)O)NC(=O)[C@H](CCN)NC(=O)[C@H](CCN)NC1=O", "note": "[Compound 23a] (H-GC(S(2-cyclohexylethyl))T[Dab][Dab][Dab][dF]L[Dab][Dab]T; lactam 5-C)", "values": [{"measurement": "TC50, Day 2", "setting": "[1]", "value": 391, "unit": "µM"}, {"measurement": "ciPTEC Toxicity Index (relative to polymyxin B)", "setting": "[1]", "value": 9.5}, {"measurement": "MIC A. baumannii (ATCC 19606)", "setting": "[2]", "value": 1, "unit": "µg/mL"}, {"measurement": "MIC E. coli (ATCC 25922)", "setting": "[3]", "value": 1, "unit": "µg/mL"}, {"measurement": "MIC P. aeruginosa (ATCC 27853)", "setting": "[4]", "value": 1, "unit": "µg/mL"}, {"measurement": "MIC K. pneumoniae (ATCC 13883)", "setting": "[5]", "value": 1, "unit": "µg/mL"}, {"measurement": "MIC E. coli 1793", "setting": "[6]", "value": 0.5, "unit": "µg/mL"}, {"measurement": "MIC A. baumannii BAA-747", "setting": "[7]", "value": 1, "unit": "µg/mL"}, {"measurement": "MIC K. pneumoniae KP1.53", "setting": "[8]", "value": 2, "unit": "µg/mL"}, {"measurement": "MIC K. pneumoniae ATCC 29665", "setting": "[9]", "value": 1, "unit": "µg/mL"}, {"measurement": "MIC A. baumannii NRZ-00687", "setting": "[10]", "value": 0.5, "unit": "µg/mL"}, {"measurement": "MIC E. coli M0072", "setting": "[11]", "value": 0.5, "unit": "µg/mL"}, {"measurement": "MIC E. coli JS136", "setting": "[12]", "value": 0.5, "unit": "µg/mL"}, {"measurement": "MIC P. aeruginosa 2018-007", "setting": "[13]", "value": 8, "unit": "µg/mL"}, {"measurement": "MIC P. aeruginosa M120", "setting": "[14]", "value": 2, "unit": "µg/mL"}, {"measurement": "MIC A. baumannii RUH-134", "setting": "[15]", "value": 1, "unit": "µg/mL"}, {"measurement": "MIC K. pneumoniae RC0045", "setting": "[16]", "value": 1, "unit": "µg/mL"}, {"measurement": "MIC P. aeruginosa ATCC 10145", "setting": "[17]", "value": 2, "unit": "µg/mL"}, {"measurement": "MIC P. aeruginosa 2251", "setting": "[18]", "value": 2, "unit": "µg/mL"}]}
